*1 amine or outer side, *2 acyl side, *3 side chain or, on linkers, in order; H or OH if unused. Where a SMILES comes first, the peptide text is derived from it. Side-chain parts run from the residue outwards. γGlu = O=C(O)[C@H](CCC(=O)[*:2])N[*:1]
What follows are compounds tested against T1, glucagon receptor (Homo sapiens, UniProt P47871) (assay: Assay (I) Glucagon activity (cAMP biosensor, FLIPR)). Settings: HEK-293 cells with cloned glucagon receptor and cAMP biosensor; end point after 6 minutes.
T1 construct: expressed in transfected cells
Assay type: cell-based
Protocol: The glucagon receptor was cloned into HEK-293 cells having a membrane bound cAMP biosensor (ACTOne™). The cells (14000 per well) were incubated (37° C., 5% CO2) overnight in 384-well plates. Next day the cells were loaded with a calcium responsive dye that only distributed into the cytoplasm. Probenecid, an inhibitor of the organic anion transporter, was added to prevent the dye from leaving the cell. A PDE inhibitor was added to prevent formatted cAMP from being degraded, The plates were placed into a […] and the glucagon analogues were added. End point data were collected after 6 minutes. An increase in intracellular cAMP was proportional to an increased in calcium concentrations in the cytoplasm. When calcium was bound the dry a fluorescence signal was generated. EC50-values were calculated in Prism5.

T1 sequence (P47871 26-477): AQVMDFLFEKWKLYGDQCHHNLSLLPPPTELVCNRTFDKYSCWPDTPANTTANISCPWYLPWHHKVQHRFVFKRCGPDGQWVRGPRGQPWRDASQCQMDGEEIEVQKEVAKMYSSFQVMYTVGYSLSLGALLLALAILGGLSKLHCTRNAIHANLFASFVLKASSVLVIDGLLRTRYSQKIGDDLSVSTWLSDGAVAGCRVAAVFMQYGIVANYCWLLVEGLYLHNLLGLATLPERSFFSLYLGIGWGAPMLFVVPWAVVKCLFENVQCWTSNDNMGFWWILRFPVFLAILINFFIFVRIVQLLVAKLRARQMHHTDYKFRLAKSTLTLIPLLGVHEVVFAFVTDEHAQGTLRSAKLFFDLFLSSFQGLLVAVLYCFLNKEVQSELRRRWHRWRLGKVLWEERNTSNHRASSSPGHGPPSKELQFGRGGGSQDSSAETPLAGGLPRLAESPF

EC50	SMILES
0.007 nM	CC(=O)N[C@@H](CCC(=O)N[C@@H](CCC(=O)N[C@@H](CCC(=O)N[C@@H](CCC(=O)NCCCC[C@H](NC(=O)[C@@H](NC(=O)[C@H](CO)NC(=O)[C@H](CC(C)C)NC(=O)[C@H](CC(C)C)NC(=O)[C@H](Cc1c[nH]c2ccccc12)NC(=O)[C@H](CCC(N)=O)NC(=O)[C@@H](NC(=O)[C@H](Cc1ccccc1)NC(=O)[C@H](CC(=O)O)NC(=O)[C@H](CCC(N)=O)NC(=O)[C@H](C)NC(=O)[C@H](CCCNC(=N)N)NC(=O)[C@H](CCCNC(=N)N)NC(=O)[C@H](CO)NC(=O)[C@H](CC(=O)O)NC(=O)[C@H](CC(C)C)NC(=O)[C@H](Cc1ccc(O)cc1)NC(=O)[C@H](CCCCN)NC(=O)[C@H](CO)NC(=O)[C@H](Cc1ccc(O)cc1)NC(=O)[C@H](CC(=O)O)NC(=O)[C@H](CO)NC(=O)[C@@H](NC(=O)[C@H](Cc1ccccc1)NC(=O)[C@@H](NC(=O)CNC(=O)[C@H](CCC(N)=O)NC(=O)[C@H](CO)NC(=O)[C@@H](N)Cc1c[nH]cn1)[C@@H](C)O)[C@@H](C)O)C(C)C)[C@@H](C)O)C(=O)O)C(=O)O)C(=O)O)C(=O)O)C(=O)O [Example 51, N^α([Leu^27,Ser^28]-Glucagonyl)-N^ε[(4S)-4-[[(4S)-4-[[(4S)-4-[[(4S)-4-acetamido-4-carboxybutanoyl]amino]-4-carboxybutanoyl]amino]-4-carboxybutanoyl]amino]-4-carboxybutanoyl]Lys]
0.037 nM	CC(C)C[C@H](NC(=O)[C@H](Cc1c[nH]c2ccccc12)NC(=O)[C@H](CCCCNC(=O)CC[C@H](NC(=O)CC[C@H](NC(=O)CC[C@H](NC(=O)CC[C@H](N)C(=O)O)C(=O)O)C(=O)O)C(=O)O)NC(=O)[C@@H](NC(=O)[C@H](Cc1ccccc1)NC(=O)[C@H](CC(=O)O)NC(=O)[C@H](C)NC(=O)[C@H](C)NC(=O)[C@H](CCCNC(=N)N)NC(=O)[C@H](CCCNC(=N)N)NC(=O)[C@@H](NC(=O)[C@H](CC(=O)O)NC(=O)[C@H](CC(C)C)NC(=O)[C@H](Cc1ccc(O)cc1)NC(=O)[C@H](CCCNC(=N)N)NC(=O)[C@H](CO)NC(=O)[C@H](Cc1ccc(O)cc1)NC(=O)[C@H](CC(=O)O)NC(=O)[C@H](CO)NC(=O)[C@@H](NC(=O)[C@H](Cc1ccccc1)NC(=O)[C@@H](NC(=O)CNC(=O)[C@H](Cc1c[nH]cn1)NC(=O)[C@H](CO)NC(=O)[C@@H](N)Cc1c[nH]cn1)[C@@H](C)O)[C@@H](C)O)[C@@H](C)O)C(C)C)C(=O)N[C@@H](CC(C)C)C(=O)N[C@@H](CO)C(=O)N[C@H](C(=O)O)[C@@H](C)O [Example 9, N^ε24-[(4S)-4-[[(4S)-4-[[(4S)-4-[[(4S)-4-amino-4-carboxybutanoyl]amino]-4-carboxybutanoyl]amino]-4-carboxybutanoyl]amino]-4-carboxybutanoyl]-[His3,Arg12,Thr16,Ala20,Lys24,Leu27,Ser28]-Glucagon] (H-HSHGTFTSDYSRYLDTRRAADFVK([γGlu-γGlu-γGlu-γGlu])WLLST-OH)
0.0167 nM	CC(=O)N[C@@H](CCC(=O)N[C@@H](CCC(=O)N[C@@H](CCC(=O)N[C@@H](CCC(=O)NCCCC[C@H](NC(=O)[C@@H](NC(=O)[C@H](Cc1ccccc1)NC(=O)[C@H](CC(=O)O)NC(=O)[C@H](C)NC(=O)[C@H](C)NC(=O)[C@H](CCCNC(=N)N)NC(=O)[C@H](CCCNC(=N)N)NC(=O)[C@@H](NC(=O)[C@H](CC(=O)O)NC(=O)[C@H](CC(C)C)NC(=O)[C@H](Cc1ccc(O)cc1)NC(=O)[C@H](CCCCN)NC(=O)[C@H](CO)NC(=O)[C@H](Cc1ccc(O)cc1)NC(=O)[C@H](CC(=O)O)NC(=O)[C@H](CO)NC(=O)[C@@H](NC(=O)[C@H](Cc1ccccc1)NC(=O)[C@@H](NC(=O)CNC(=O)[C@H](Cc1c[nH]cn1)NC(=O)[C@H](CO)NC(=O)[C@@H](N)Cc1c[nH]cn1)[C@@H](C)O)[C@@H](C)O)C(C)C)C(C)C)C(=O)N[C@@H](Cc1c[nH]c2ccccc12)C(=O)N[C@@H](CC(C)C)C(=O)N[C@@H](CC(C)C)C(=O)N[C@@H](CO)C(=O)N[C@H](C(=O)O)[C@@H](C)O)C(=O)O)C(=O)O)C(=O)O)C(=O)O [Example 10, N^ε24-[(4S)-4-[[(4S)-4-[[(4S)-4-[[(4S)-4-acetamido-4-carboxybutanoyl]amino]-4-carboxybutanoyl]amino]-4-carboxybutanoyl]amino]-4-carboxybutanoyl]-[His3,Val16,Ala20,Lys24,Leu27,Ser28]-Glucagon] (H-HSHGTFTSDYSKYLDVRRAADFVK([γGlu-γGlu-γGlu-γGlu-Ac])WLLST-OH)
0.0563 nM	CC(C)C[C@H](NC(=O)[C@H](Cc1ccc(O)cc1)NC(=O)[C@H](CCCCN)NC(=O)[C@H](CO)NC(=O)[C@H](Cc1ccc(O)cc1)NC(=O)[C@H](CC(=O)O)NC(=O)[C@H](CO)NC(=O)[C@@H](NC(=O)[C@H](Cc1ccccc1)NC(=O)[C@@H](NC(=O)CNC(=O)[C@H](Cc1c[nH]cn1)NC(=O)[C@H](CO)NC(=O)[C@@H](N)Cc1c[nH]cn1)[C@@H](C)O)[C@@H](C)O)C(=O)N[C@@H](CCC(=O)O)C(=O)N[C@@H](CO)C(=O)N[C@@H](CCCNC(=N)N)C(=O)N[C@@H](CCCNC(=N)N)C(=O)N[C@@H](C)C(=O)N[C@@H](C)C(=O)N[C@@H](CC(=O)O)C(=O)N[C@@H](Cc1ccccc1)C(=O)N[C@H](C(=O)N[C@@H](CCCCNC(=O)CC[C@H](NC(=O)CC[C@H](NC(=O)CC[C@H](NC(=O)CC[C@H](N)C(=O)O)C(=O)O)C(=O)O)C(=O)O)C(=O)N[C@@H](Cc1c[nH]c2ccccc12)C(=O)N[C@@H](CC(C)C)C(=O)N[C@@H](CC(C)C)C(=O)N[C@@H](CO)C(=O)N[C@H](C(=O)O)[C@@H](C)O)C(C)C [Example 5, N^ε24-[(4S)-4-[[(4S)-4-[[(4S)-4-[[(4S)-4-amino-4-carboxybutanoyl]amino]-4-carboxybutanoyl]amino]-4-carboxybutanoyl]amino]-4-carboxybutanoyl]-[His3,Glu15,Ala20,Lys24,Leu27,Ser28]-Glucagon] (H-HSHGTFTSDYSKYLESRRAADFVK([γGlu-γGlu-γGlu-γGlu])WLLST-OH)
0.027 nM	CC(=O)N[C@@H](CCC(=O)N[C@@H](CCC(=O)N[C@@H](CCC(=O)N[C@@H](CCC(=O)NCCCC[C@H](NC(=O)[C@@H](NC(=O)[C@H](Cc1ccccc1)NC(=O)[C@H](CCC(=O)O)NC(=O)[C@H](CCC(N)=O)NC(=O)[C@H](C)NC(=O)[C@H](CCCNC(=N)N)NC(=O)[C@H](CCCNC(=N)N)NC(=O)[C@H](CO)NC(=O)[C@H](CCC(=O)O)NC(=O)[C@H](CC(C)C)NC(=O)[C@H](Cc1ccc(O)cc1)NC(=O)[C@H](CCCCN)NC(=O)[C@H](CO)NC(=O)[C@@H](NC(=O)[C@H](CC(=O)O)NC(=O)[C@H](CO)NC(=O)[C@@H](NC(=O)[C@H](Cc1ccccc1)NC(=O)[C@@H](NC(=O)CNC(=O)[C@H](CCC(N)=O)NC(=O)[C@H](CO)NC(=O)[C@@H](N)Cc1c[nH]cn1)[C@@H](C)O)[C@@H](C)O)C(C)C)C(C)C)C(=O)N[C@@H](Cc1c[nH]c2ccccc12)C(=O)N[C@@H](CC(C)C)C(=O)N[C@@H](CC(C)C)C(=O)N[C@@H](CO)C(=O)N[C@H](C(=O)O)[C@@H](C)O)C(=O)O)C(=O)O)C(=O)O)C(=O)O [Example 45, N^ε24-[(4S)-4-[[(4S)-4-[[(4S)-4-[[(4S)-4-acetamido-4-carboxybutanoyl]amino]-4-carboxybutanoyl]amino]-4-carboxybutanoyl]amino]-4-carboxybutanoyl]-[Val^10,Glu^15,Glu^21,Lys^24,Leu^27,Ser^28]-Glucagon] (H-HSQGTFTSDVSKYLESRRAQEFVK([γGlu-γGlu-γGlu-γGlu-Ac])WLLST-OH)
0.003 nM	CC(=O)N[C@@H](CCC(=O)N[C@@H](CCC(=O)N[C@@H](CCC(=O)N[C@@H](CCC(=O)NCCCC[C@H](NC(=O)[C@@H](NC(=O)[C@H](Cc1ccccc1)NC(=O)[C@H](CC(=O)O)NC(=O)[C@H](CCC(N)=O)NC(=O)[C@H](C)NC(=O)[C@H](CCCNC(=N)N)NC(=O)[C@H](CCCNC(=N)N)NC(=O)[C@H](CC(C)C)NC(=O)[C@H](CC(=O)O)NC(=O)[C@H](CC(C)C)NC(=O)[C@H](Cc1ccc(O)cc1)NC(=O)[C@H](CCCNC(=N)N)NC(=O)[C@H](CO)NC(=O)[C@H](Cc1ccc(O)cc1)NC(=O)[C@H](CC(=O)O)NC(=O)[C@H](CO)NC(=O)[C@@H](NC(=O)[C@H](Cc1ccccc1)NC(=O)[C@@H](NC(=O)CNC(=O)[C@H](CCC(N)=O)NC(=O)[C@H](CO)NC(=O)[C@@H](N)Cc1c[nH]cn1)[C@@H](C)O)[C@@H](C)O)C(C)C)C(=O)N[C@@H](Cc1c[nH]c2ccccc12)C(=O)N[C@@H](CC(C)C)C(=O)N[C@@H](CC(C)C)C(=O)N[C@@H](CO)C(=O)N[C@H](C(=O)N1CCC[C@H]1C(=O)O)[C@@H](C)O)C(=O)O)C(=O)O)C(=O)O)C(=O)O [Example 40, N^ε24-[(4S)-4-[[(4S)-4-[[(4S)-4-[[(4S)-4-acetamido-4-carboxybutanoyl]amino]-4-carboxybutanoyl]amino]-4-carboxybutanoyl]amino]-4-carboxybutanoyl]-[Arg12,Leu16,Lys24,Leu27,Ser28]-Glucagonyl-Pro] (H-HSQGTFTSDYSRYLDLRRAQDFVK([γGlu-γGlu-γGlu-γGlu-Ac])WLLSTP-OH)
